Values of other authors in US20030232019A1, “Inhalable formulations for sustained release” (Advanced Inhalation Research, Inc., priority 2002, published 2003).

Settings: healthy volunteers after inhalation

For insulin, the “time to half-maximal action (glucose infusion rate)” value is given as “about 30 minutes”.
